What all share (type): cell-based
One test relates to SK-N-BE(2)c. In words: MTS cell viability assay, soluble SN-38 on SK-N-BE(2)c neuroblastoma cells. To be noted: SK-N-BE(2)c cells, 4 hours exposure, viability 4 days later. Here is the method:
(§1) To determine whether the antitumor activity of the drug was conserved after the manufacturing process of the membranes, the present inventors co-incubated the membranes with neuroblastoma cell lines. In a previous experiment, the present inventors determined the extent to which SN-38 inhibits neuroblastoma. Such experiment was performed by exposing LAN-1, SK-N-BE(2)c and SK-N-AS cell lines to a fresh solution of SN-38 in RPMI, prepared from a stock solution of SN-38, 1 mg/mL in DMSO. Briefly, cells were plated in 96 well plates, 3000 cells per well, in RPMI medium. 24 hours later, the cells were exposed to SN-38 (concentration range 10-0.000001 μM). After 4 hours, the drug was withdrawn and fresh medium was added. The viability of the cell culture was quantified 4 days later, by using the MTS cell viability assay (Promega).
(§2) Each dot represents the mean (±SD) of 3-5 wells.

For a further test, the system named is LAN-1. In words: MTS cell viability assay, soluble SN-38 on LAN-1 neuroblastoma cells. To be noted: LAN-1 cells, 4 hours exposure, viability 4 days later. Here is the method: as §1, §2
Another test has as its system SK-N-AS. The test can be described thus: MTS cell viability assay, soluble SN-38 on SK-N-AS neuroblastoma cells. To be noted: 4 hours exposure, viability 4 days later. The protocol: as §1, §2

As usually defined, the IC50 is the concentration that gives 50% inhibition. A low value points to greater potency. As to `CCc1c2c(nc3ccc(O)cc13)-c1cc3c(c(=O)n1C2)COC(=O)[C@]3(O)CC` [SN-38, 7-ethyl-10-hydroxycamptothecin], the IC50 with SK-N-BE(2)c worked out at 46 nM; in the test on LAN-1 it was 10 nM; with SK-N-AS, 190 nM.
